Assay results: PubChem BioAssay (NCI)
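Growth conditions: 96-well plates. Treatment: test compound, 48 hours, 5 concentrations. Analysis: linear interpolation between bracketing concentrations; unreached endpoints set to highest concentration. GI50 = concentration required for 50% inhibition of growth. TGI is the concentration that stops growth completely.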

Columns and labels:
Assay in all cases: DTP human tumour cell line panel, 48 h
[1] = system: 786-0 renal
[2] = system: A498 renal
[3] = system: A549 NSCLC
[4] = system: ACHN renal
[5] = system: BT-549 breast
[6] = system: CAKI-1 renal
[7] = system: CCRF-CEM leukemia
[8] = system: COLO 205 colon
[9] = system: DU-145 prostate
[10] = system: EKVX NSCLC
[11] = system: HCC-2998 colon
[12] = system: HCT-116 colon
[13] = system: HCT-15 colon
[14] = system: HL-60(TB) leukemia
[15] = system: HOP-62 NSCLC
[16] = system: HOP-92 NSCLC
[17] = system: HS 578T breast
[18] = system: HT29 colon
[19] = system: IGROV1 ovarian
[20] = system: K-562 leukemia
[21] = system: KM12 colon
[22] = system: LOX IMVI melanoma
[23] = system: M14 melanoma
[24] = system: MALME-3M melanoma
[25] = system: MCF7 breast
[26] = system: MDA-MB-231 breast
[27] = system: MDA-MB-435
[28] = system: MDA-N
[29] = system: MOLT-4 leukemia
[30] = system: NCI-H226 lung
[31] = system: NCI-H23 lung
[32] = system: NCI-H460 lung
[33] = system: NCI-H522 lung
[34] = system: NCI/ADR-RES ovarian
[35] = system: OVCAR-3 ovarian
[36] = system: OVCAR-4 ovarian
[37] = system: OVCAR-5 ovarian
[38] = system: OVCAR-8 ovarian
[39] = system: PC-3 prostate
[40] = system: RPMI-8226 leukemia
[41] = system: SF-268 CNS
[42] = system: SF-295 CNS
[43] = system: SF-539 CNS
[44] = system: SK-MEL-2 melanoma
[45] = system: SK-MEL-28 melanoma
[46] = system: SK-MEL-5 melanoma
[47] = system: SK-OV-3 ovarian
[48] = system: SN12C renal
[49] = system: SNB-19 CNS
[50] = system: SNB-75 CNS
[51] = system: SW-620 colon
[52] = system: T-47D breast
[53] = system: TK-10 renal
[54] = system: U251 CNS
[55] = system: UACC-257 melanoma
[56] = system: UACC-62 melanoma
[57] = system: UO-31 renal
[58] = system: SR leukemia

With `O=c1cc(-c2ccc(F)cc2)[nH]c2ncccc12` the GI50 [1] was 44.3 µM, the TGI [1] was over 100 µM and the TGI [2] was over 100 µM. It also gave a TGI [3] of over 100 µM, a TGI [4] of over 100 µM and a TGI [5] of over 100 µM. It also gave a TGI [6] of over 100 µM, a TGI [7] of over 100 µM and a TGI [8] of 60.3 µM. For the same compound, the TGI [9] was over 100 µM, the TGI [10] was over 100 µM and the TGI [11] was over 100 µM. For the same compound, the GI50 [12] was 42.9 µM, the TGI [12] was over 100 µM and the TGI [13] was over 100 µM. For the same compound, the GI50 [14] was 12.9 µM, the TGI [14] was 34.1 µM and the TGI [15] was over 100 µM. It also gave a TGI [16] of over 100 µM, a TGI [17] of over 100 µM and a TGI [18] of over 100 µM. For the same compound, the TGI [19] was over 100 µM, the TGI [20] was over 100 µM and the TGI [21] was over 100 µM. It also gave a TGI [22] of over 100 µM, a TGI [23] of over 100 µM and a TGI [24] of over 100 µM. The TGI [25] was over 100 µM, the TGI [26] was over 100 µM and the GI50 [27] was 12 µM. For the same compound, the TGI [27] was 33 µM, the GI50 [28] was 14.1 µM and the TGI [28] was 35.9 µM. It also gave a TGI [29] of over 100 µM, a TGI [30] of over 100 µM and a TGI [31] of over 100 µM. For the same compound, the GI50 [32] was 34.7 µM, the TGI [32] was over 100 µM and the TGI [33] was over 100 µM. It also gave a TGI [34] of over 100 µM, a GI50 [35] of 45.5 µM and a TGI [35] of over 100 µM. It also gave a TGI [36] of over 100 µM, a TGI [37] of over 100 µM and a TGI [38] of over 100 µM. For the same compound, the GI50 [39] was 46.1 µM, the TGI [39] was over 100 µM and the TGI [40] was over 100 µM. The TGI [41] was over 100 µM, the GI50 [42] was 50 µM and the TGI [42] was over 100 µM. It also gave a TGI [43] of over 100 µM, a TGI [44] of over 100 µM and a TGI [45] of over 100 µM. For the same compound, the GI50 [46] was 30.3 µM, the TGI [46] was over 100 µM and the TGI [47] was over 100 µM. The TGI [48] was over 100 µM, the TGI [49] was over 100 µM and the TGI [50] was 81.1 µM. For the same compound, the TGI [51] was over 100 µM, the TGI [52] was over 100 µM and the TGI [53] was over 100 µM. For the same compound, the GI50 [54] was 48.2 µM, the TGI [54] was over 100 µM and the TGI [55] was over 100 µM. For the same compound, the TGI [56] was over 100 µM and the TGI [57] was over 100 µM.

Work on `COC(=O)c1ccc(NCc2cc(OC)ccc2OC)cc1` yielded a TGI [1] of over 100 µM, a TGI [2] of 78.8 µM and a TGI [3] of over 100 µM. The TGI [4] was over 100 µM, the TGI [5] was over 100 µM and the TGI [6] was over 100 µM. The TGI [7] was over 100 µM, the TGI [8] was over 100 µM and the TGI [9] was over 100 µM. For the same compound, the TGI [10] was over 100 µM, the TGI [11] was over 100 µM and the TGI [12] was over 100 µM. The TGI [13] was over 100 µM, the TGI [14] was over 100 µM and the TGI [16] was over 100 µM. For the same compound, the TGI [17] was over 100 µM, the TGI [18] was over 100 µM and the TGI [19] was over 100 µM. It also gave a TGI [20] of over 100 µM, a TGI [21] of over 100 µM and a TGI [22] of over 100 µM. For the same compound, the TGI [23] was over 100 µM, the TGI [24] was over 100 µM and the TGI [25] was over 100 µM. The TGI [26] was over 100 µM, the TGI [27] was over 100 µM and the TGI [28] was over 100 µM. For the same compound, the TGI [29] was over 100 µM, the TGI [30] was over 100 µM and the TGI [31] was over 100 µM. It also gave a TGI [33] of over 100 µM, a TGI [34] of over 100 µM and a TGI [35] of over 100 µM. The TGI [36] was over 100 µM, the TGI [37] was over 100 µM and the TGI [38] was over 100 µM. It also gave a TGI [39] of over 100 µM, a TGI [40] of over 100 µM and a TGI [41] of over 100 µM. The TGI [43] was over 100 µM, the TGI [44] was over 100 µM and the TGI [45] was over 100 µM. The TGI [46] was over 100 µM, the TGI [47] was over 100 µM and the TGI [49] was over 100 µM. It also gave a TGI [50] of over 100 µM, a TGI [58] of over 100 µM and a TGI [51] of over 100 µM. For the same compound, the TGI [53] was over 100 µM, the TGI [54] was over 100 µM and the TGI [55] was over 100 µM. For the same compound, the TGI [56] was over 100 µM and the TGI [57] was over 100 µM.
